The results in this text go back to patent publication US8653096B2, “Chemokine receptor antagonists and methods of use thereof” (Millennium Pharmaceuticals, Inc., priority 2001, dated 2014).

The test deals with T1, RANTES/MIP-1α chemokine receptor (CCR1) in THP-1 cell membranes (Homo sapiens, UniProt P32246).
T1 construct: Membranes were prepared from THP-1 cells (ATCC #TIB202); host or cells: THP-1 cells (membrane preparation)
T1 sequence (P32246 1-355): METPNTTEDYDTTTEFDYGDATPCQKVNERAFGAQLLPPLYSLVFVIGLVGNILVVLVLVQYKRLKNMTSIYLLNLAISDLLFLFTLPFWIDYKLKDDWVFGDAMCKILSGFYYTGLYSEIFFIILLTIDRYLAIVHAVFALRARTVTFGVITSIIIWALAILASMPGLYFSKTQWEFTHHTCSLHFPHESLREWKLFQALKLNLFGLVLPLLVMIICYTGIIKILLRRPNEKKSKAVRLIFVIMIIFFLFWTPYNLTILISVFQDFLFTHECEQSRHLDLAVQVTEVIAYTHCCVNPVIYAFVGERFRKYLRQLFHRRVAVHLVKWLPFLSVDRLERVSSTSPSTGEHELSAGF
Put plainly: Receptor binding assay: 125I-RANTES or 125I-MIP-1α binding to THP-1 cell membranes. The conditions noted are these: inhibitor concentration required for 50% inhibition of specific binding; 125I-RANTES or 125I-MIP-1α as ligand, THP-1 cell membranes; read-out: IC50. The protocol: Membranes were prepared from THP-1 cells (ATCC #TIB202). Cells were harvested by centrifugation, washed twice with PBS (phosphate-buffered saline), and the cell pellets were frozen at −70 to −85° C. The frozen pellet was thawed in ice-cold lysis buffer consisting of 5 mM HEPES (N-2-hydroxyethylpiperazine-N′-2-ethane-sulfonic acid) pH 7.5, 2 mM EDTA (ethylenediaminetetraacetic acid), 5 μg/ml each aprotinin, leupeptin, and chymostatin (protease inhibitors), and 100 μg/ml PMSF (phenyl methane sulfonyl fluoride—also a protease inhibitor), at a concentration of 1 to 5×10^7 cells/ml. This procedure results in cell lysis. The suspension was mixed well to resuspend all of the frozen cell pellet. Nuclei and cell debris were removed by centrifugation of 400×g for 10 minutes at 4° C. The supernatant was transferred to a fresh tube and the membrane fragments were collected by centrifugation at 25,000×g for 30 minutes at 4° C. The supernatant was aspirated and the pellet was resuspended in freezing buffer consisting of 10 mM HEPES pH 7.5, 300 mM sucrose, 1 μg/ml each aprotinin, leupeptin, and chymostatin, and 10 μg/ml PMSF (approximately 0.1 ml per each 10^8 cells). All clumps were resolved using a minihomogenizer, and the total protein concentration was determined using a protein assay kit (Bio-Rad, Hercules, Calif., cat #500-0002). The membrane solution was then aliquoted and frozen at −70 to −85° C. until needed.
Binding Assays utilized the membranes described above. […] The binding reactions were performed in 60 to 100 μl of a binding buffer consisting of 10 mM HEPES pH 7.2, 1 mM CaCl2, 5 mM MgCl2, and 0.5% BSA (bovine serum albumin), for 60 min at room temperature. The binding reactions were terminated by harvesting the membranes by rapid filtration through glass fiber filters (GF/B or GF/C, Packard) which were presoaked in 0.3% polyethyleneimine. The filters were rinsed with approximately 600 μl of binding buffer containing 0.5 M NaCl, dried, and the amount of bound radioactivity was determined by scintillation counting in a Topcount beta-plate counter.
Specific binding is defined as the total binding minus the non-specific binding; non-specific binding is the amount of cpm still detected in the presence of excess unlabeled Rantes or MIP-1α.
Regarding “1-[3-(8-Bromo-5,11-dihydro[1]benzoxepino[2,3-b]pyridin-5-ylidene)propyl]-4-(4-chlorophenyl)piperidin-4-ol [Example 54]”, the 50% inhibitory concentration (IC50) was under 1000 nM.

Consider “1-[3-(8-Bromo-5,11-dihydro[1]benzoxepino[2,3-b]pyridin-5-ylidene)propyl]-4-(4-chlorophenyl)piperidine [Example 160]”, for which the 50% inhibitory concentration (IC50) was under 1000 nM.

For the substance “1-[3-(8-Carboxy-5,11-dihydro[1]benzoxepino[2,3-b]pyridin-5-ylidene)propyl]-4-(4-chlorophenyl)piperidine [Example 161]”, the IC50 is under 10000 nM.

Regarding “1-{3-[7-(1-Hydroxy-1-methyl-ethyl)-11H-10-oxa-1-aza-dibenzo[a,d]cyclohepten-5-ylidene]-propyl}-4-phenyl-piperidin-4-ol [Example 488]”, the half-maximal inhibitory concentration (IC50) is under 1000 nM.

For the substance “1′-[3-(5,11-Dihydro-7-methoxy[1]benzoxepino[2,3-b]pyridin-5-ylidene)propyl]spiro[isobenzofuran-1(3H), 4′-piperidine] [Example 90]”, the IC50 is under 1000 nM.

Take “4-(2-Chlorophenyl)-1-[3-(5,11-dihydro-7-methoxy[1]benzoxepino[2,3-b]pyridin-5-ylidene)propyl]piperidin-4-ol [Example 76]”: the IC50 was under 10000 nM.

As to “4-(3,4-Dichlorophenyl)-1-[3-(5,11-dihydro-7-methoxy[1]benzoxepino[2,3-b]pyridin-5-ylidene)propyl]piperidin-4-ol [Example 79]”, the 50% inhibitory concentration (IC50) is under 1000 nM.

Turning to “4-(3,4-difluorophenyl)-1-[3-(5,11-dihydro-7-methoxy[1]benzoxepino[2,3-b]pyridin-5-ylidene)propyl]piperidin-4-ol [Example 144]”, the IC50 was under 1000 nM.

With “4-(3,5-dichlorophenyl)-1-[3-(5,11-dihydro-7-methoxy[1]benzoxepino[2,3-b]pyridin-5-ylidene)propyl]piperidin-4-ol [Example 146]”, the half-inhibitory concentration (IC50) is over 10000 nM.

For “4-(3-Chlorophenyl)-1-[3-(5,11-dihydro-7-methoxy[1]benzoxepino[2,3-b]pyridin-5-ylidene)propyl]piperidin-4-ol [Example 75]”, the IC50 is under 10000 nM.

Regarding “4-(4-Bromophenyl)-1-[3-(5,11-dihydro-7-methoxy[1]benzoxepino[2,3-b]pyridin-5-ylidene)propyl]piperidin-4-ol [Example 60]”, the half-maximal inhibitory concentration (IC50) was under 1000 nM.

With “4-(4-Chlorophenyl)-1-[3-(5,11-dihydro [1]benzoxepino[2,3-b]pyridin-5-ylidene)propyl]piperidin-4-ol [Example 53]”, the 50% inhibitory concentration (IC50) was under 1000 nM.

With “4-(4-Chlorophenyl)-1-[3-(5,11-dihydro-7-(1-butoxy)carbonyl-[1]benzoxepino[2,3-b]pyridin-5-ylidene) propyl]piperidine-4-ol [Example 427]”, the IC50 was under 1000 nM.

As to “4-(4-Chlorophenyl)-1-[3-(5,11-dihydro-7-(1-cyclohexyloxycarbonyloxy)ethyloxycarbonyl[1]benzoxepino[2,3-b]pyridin-5-ylidene)propyl]piperidin-4-ol dihydrochloride [Example 306]”, the IC50 is under 1000 nM.

As for “4-(4-Chlorophenyl)-1-[3-(5,11-dihydro-7-(1-ethoxycarbonyl-1-methylethyl)oxy[1]benzoxepino[2,3-b]pyridin-5-ylidene)propyl]piperidin-4-ol [Example 138]”, the 50% inhibitory concentration (IC50) is under 1000 nM.

“4-(4-Chlorophenyl)-1-[3-(5,11-dihydro-7-(1-ethoxycarbonyl-1-methylethyl)oxy[1]benzoxepino[2,3-b]pyridin-5-ylidene)propyl]piperidine [Example 158]”: the half-maximal inhibitory concentration (IC50) is under 1000 nM.

Turning to “4-(4-Chlorophenyl)-1-[3-(5,11-dihydro-7-(1-piperidino)methyl[1]benzoxepino[2,3-b]pyridin-5-ylidene)propyl]piperidin-4-ol [Example 277]”, the IC50 was under 1000 nM.

Regarding “4-(4-Chlorophenyl)-1-[3-(5,11-dihydro-7-(1-propoxy)carbonyl-[1]benzoxepino[2,3-b]pyridin-5-ylidene) propyl]piperidine-4-ol [Example 426]”, the 50% inhibitory concentration (IC50) was under 1000 nM.

In the case of “4-(4-Chlorophenyl)-1-[3-(5,11-dihydro-7-(1-pyrrolidino)methyl [1]benzoxepino[2,3-b]pyridin-5-ylidene)propyl]piperidin-4-ol [Example 279]”, the IC50 was under 1000 nM.

With “4-(4-Chlorophenyl)-1-[3-(5,11-dihydro-7-(2,3-dihydroxy)propyl[1]benzoxepino[2,3-b]pyridin-5-ylidene)propyl]piperidin-4-ol [Example 290]”, the IC50 was under 1000 nM.

Take “4-(4-Chlorophenyl)-1-[3-(5,11-dihydro-7-(2-hydroxy)ethyl[1]benzoxepino[2,3-b]pyridin-5-ylidene)propyl]piperidin-4-ol [Example 280]”: the 50% inhibitory concentration (IC50) is under 1000 nM.

For the substance “4-(4-Chlorophenyl)-1-[3-(5,11-dihydro-7-(2-hydroxyethyl)oxy[1]benzoxepino[2,3-b]pyridin-5-ylidene)propyl]piperidin-4-ol [Example 51]”, the IC50 was under 1000 nM.

In the case of “4-(4-Chlorophenyl)-1-[3-(5,11-dihydro-7-(2-morpholinoethyl)oxy[1]benzoxepino[2,3-b]pyridin-5-ylidene)propyl]piperidin-4-ol [Example 52]”, the IC50 was under 1000 nM.

Take “4-(4-Chlorophenyl)-1-[3-(5,11-dihydro-7-(2-propoxy)carbonyl-[1]benzoxepino[2,3-b]pyridin-5-ylidene) propyl]piperidine-4-ol [Example 428]”: the half-inhibitory concentration (IC50) was under 1000 nM.

Take “4-(4-Chlorophenyl)-1-[3-(5,11-dihydro-7-(ethoxycarbonylmethyl)-oxycarbonyl-[1]benzoxepino[2,3-b]pyridin-5-ylidene) propyl]piperidine-4-ol [Example 424]”: the IC50 is under 1000 nM.

On to “4-(4-Chlorophenyl)-1-[3-(5,11-dihydro-7-cyclohexyloxycarbonyl-[1]benzoxepino[2,3-b]pyridin-5-ylidene)propyl]piperidine-4-ol [Example 425]”, for which the IC50 was under 1000 nM.

With “4-(4-Chlorophenyl)-1-[3-(5,11-dihydro-7-cyclopentyl-oxycarbonyl-[1]benzoxepino[2,3-b]pyridin-5-ylidene) propyl]piperidine-4-ol [Example 429]”, the IC50 was under 1000 nM.

For “4-(4-Chlorophenyl)-1-[3-(5,11-dihydro-7-dimethylaminocarbonylmethyloxy[1]benzoxepino[2,3-b]pyridin-5-ylidene)propyl]piperidin-4-ol [Example 134]”, the IC50 is under 1000 nM.

Take “4-(4-Chlorophenyl)-1-[3-(5,11-dihydro-7-dimethylaminocarbonylmethyloxy[1]benzoxepino[2,3-b]pyridin-5-ylidene)propyl]piperidine [Example 155]”: the IC50 is under 1000 nM.

In the case of “4-(4-Chlorophenyl)-1-[3-(5,11-dihydro-7-ethoxy [1]benzoxepino[2,3-b]pyridin-5-ylidene)propyl]piperidin-4-ol [Example 46]”, the IC50 was under 1000 nM.

For “4-(4-Chlorophenyl)-1-[3-(5,11-dihydro-7-ethoxy[1]benzoxepino[2,3-b]pyridin-5-ylidene)propyl]piperidine [Example 152]”, the concentration for half-maximal inhibition (IC50) is under 1000 nM.

Consider “4-(4-Chlorophenyl)-1-[3-(5,11-dihydro-7-ethoxycarbonyl-[1]benzoxepino[2,3-b]pyridin-5-ylidene) propyl]piperidine-4-ol [Example 423]”, for which the IC50 was under 1000 nM.

As for “4-(4-Chlorophenyl)-1-[3-(5,11-dihydro-7-ethoxycarbonylmethyloxy[1]benzoxepino[2,3-b]pyridin-5-ylidene)propyl]piperidin-4-ol [Example 48]”, the IC50 was under 1000 nM.

Take “4-(4-Chlorophenyl)-1-[3-(5,11-dihydro-7-ethyl[1]benzoxepino[2,3-b]pyridin-5-ylidene)propyl]piperidin-4-ol [Example 163]”: the 50% inhibitory concentration (IC50) is under 1000 nM.
